SMILES strings stand for the structures. pKd: −log10 of the molar value.

For one test, the target named is T1, ALKBH1_1–359 (mouse) (Mus musculus, UniProt P0CB42).
T1 construct: gene Alkbh1; C-terminally truncated, residues 1-359, His-tag removed with PreScission protease, E. coli BL21(DE3); residues 20-358 modelled in the crystal
T1 sequence (P0CB42 1-359): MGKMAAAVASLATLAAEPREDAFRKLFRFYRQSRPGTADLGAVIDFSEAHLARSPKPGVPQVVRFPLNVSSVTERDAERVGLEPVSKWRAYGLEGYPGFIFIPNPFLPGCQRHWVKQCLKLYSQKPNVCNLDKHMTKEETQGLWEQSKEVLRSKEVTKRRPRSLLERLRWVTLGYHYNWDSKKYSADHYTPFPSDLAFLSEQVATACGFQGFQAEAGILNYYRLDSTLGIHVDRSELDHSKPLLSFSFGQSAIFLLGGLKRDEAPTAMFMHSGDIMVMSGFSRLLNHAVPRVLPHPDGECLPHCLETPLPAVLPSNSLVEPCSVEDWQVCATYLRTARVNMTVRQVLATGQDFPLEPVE
In words: isothermal titration calorimetry. It counts as binding. On the technique in general: ITC needs no label: the signal is the heat of the interaction.

Test [1] has as its target T2, ALKBH1 in full length (mouse) (Mus musculus, UniProt P0CB42).
T2 construct: full length, residues 1-389, N-terminal His-tag retained, E. coli BL21(DE3), modified pRSFDuet-1
T2 sequence (P0CB42 1-389): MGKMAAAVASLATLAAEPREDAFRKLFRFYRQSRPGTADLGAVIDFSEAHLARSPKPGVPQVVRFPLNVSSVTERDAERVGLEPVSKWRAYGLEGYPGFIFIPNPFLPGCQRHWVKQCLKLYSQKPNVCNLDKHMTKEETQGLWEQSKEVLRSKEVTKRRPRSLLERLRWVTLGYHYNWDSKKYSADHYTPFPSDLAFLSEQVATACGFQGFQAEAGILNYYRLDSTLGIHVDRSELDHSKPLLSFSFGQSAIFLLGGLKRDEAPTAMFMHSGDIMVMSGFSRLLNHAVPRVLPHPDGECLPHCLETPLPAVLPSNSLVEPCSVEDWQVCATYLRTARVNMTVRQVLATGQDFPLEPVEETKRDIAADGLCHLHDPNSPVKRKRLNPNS
The test is described as follows: isothermal titration calorimetry. It counts as binding.

One may read the pKd as the negative decadic logarithm of the Kd, by convention in mol/L. Lower therefore signals a high Kd. In the case of `O=C(O)CNC(=O)C(=O)O` [NOG], the figures for the negative logarithm of the Kd (pKd) (at ALKBH1_1–359 (mouse); in test [1]) were 5.60 and 5.74, respectively.

Source of the values: article PMC7054317, “Mammalian ALKBH1 serves as an N^6-mA demethylase of unpairing DNA” (Cell Research, 2020).
